# Laboratory results from patent publication US20130296267A1, “AGENT FOR INTRA-ARTICULAR INJECTION” (priority 2008, published 2013).
# Test: microscopy of dexamethasone crystals in pure saline and in the innovation
# Format: physicochemical
# Conditions: in phospholipid solution
smiles,measurement,setting,value
"CC(=O)OCC(=O)[C@@]1(O)[C@H](C)C[C@H]2[C@@H]3CCC4=CC(=O)C=C[C@]4(C)[C@@]3(F)[C@@H](O)C[C@@]21C [dexamethasone crystals, dexamethasone acetate]",crystals after twelve hours,after twelve hours,no longer detectable
same,reduction of crystals,within six hours,50%
